Test results reported in publication PMC4013053, “Identification of Selective Small Molecule Inhibitors of the Nucleotide-Binding Oligomerization Domain 1 (NOD1) Signaling Pathway” (PLoS ONE, 2014).
Values after ≈ are worked out from the molar mass of the structure shown. Read-outs that look alike come from different tables or passages of the source.

Experiments:
TNFR1 = target: T1, TNFR1 (Homo sapiens, UniProt P19438); assay: TNFα-stimulated IL-8 release in 293/hNOD1 cells; type: cell-based; settings: IL-8 released into medium
T1 construct: TNFR1 (TNFα stimulated IL-8 secretion in 293/hNOD1 cells); host or cells: 293/hNOD1 (HEK293)
T1 sequence (P19438 30-455): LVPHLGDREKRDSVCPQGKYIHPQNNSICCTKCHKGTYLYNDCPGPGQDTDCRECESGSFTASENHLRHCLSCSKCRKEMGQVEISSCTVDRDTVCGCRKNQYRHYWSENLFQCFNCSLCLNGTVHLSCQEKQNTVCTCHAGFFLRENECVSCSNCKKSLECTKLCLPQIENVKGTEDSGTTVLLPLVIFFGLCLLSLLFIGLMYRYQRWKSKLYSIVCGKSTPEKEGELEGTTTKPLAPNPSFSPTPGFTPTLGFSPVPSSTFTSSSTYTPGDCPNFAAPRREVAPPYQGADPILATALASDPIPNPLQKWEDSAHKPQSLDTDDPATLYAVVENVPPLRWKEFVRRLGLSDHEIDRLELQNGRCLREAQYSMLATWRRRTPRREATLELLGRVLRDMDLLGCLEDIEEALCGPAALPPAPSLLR
Protocol: (§1) Inhibitors of iE-DAP-stimulated IL-8 release were screened in a 1536-well assay in which 293/hNOD1 cells (5000 cells/well) in DMEM high glucose medium supplemented with 0.1% FBS and 10 µg/mL Blasticidin S were stimulated with 60 ng/mL (200 nM) iE-DAP (EC80) in the presence of 10 µM compounds. After 24 hours the amount of IL-8 secreted into the medium was determined by homogeneous time resolved fluorescence (HTRF) assay by the direct addition of a 1∶1 mix of europium cryptate and XL665-conjugated anti-IL-8 antibodies according to the manufacturer’s instructions (Cisbio). Fluorescence was measured after 2 hours in a ViewLux imager using UMB-AMC excitation and 618–671 nm emission filters (Perkin Elmer). […] Inhibition of TNFR1-induced IL-8 release was performed with 293/hNOD1 cells stimulated with 20 ng/mL (∼EC95) rhTNFα.
(§2) A high-throughput screen of about 2.2 million compounds was conducted for inhibitors of the NOD1 signaling pathway using suppression of iE-DAP stimulated IL-8 secretion in HEK293 cells stably expressing human NOD1 (293/hNOD1 cells). […] These assays were chosen to assess the selectivity of hits because the signaling pathways activated by these receptors converge at the level of the TAB/TAK1/IKK complex.

NOD1 = target: T2, NOD1 (Homo sapiens, UniProt Q9Y239); assay: iE-DAP-stimulated IL-8 release in 293/hNOD1 cells; type: cell-based
T2 sequence (Q9Y239 1-953): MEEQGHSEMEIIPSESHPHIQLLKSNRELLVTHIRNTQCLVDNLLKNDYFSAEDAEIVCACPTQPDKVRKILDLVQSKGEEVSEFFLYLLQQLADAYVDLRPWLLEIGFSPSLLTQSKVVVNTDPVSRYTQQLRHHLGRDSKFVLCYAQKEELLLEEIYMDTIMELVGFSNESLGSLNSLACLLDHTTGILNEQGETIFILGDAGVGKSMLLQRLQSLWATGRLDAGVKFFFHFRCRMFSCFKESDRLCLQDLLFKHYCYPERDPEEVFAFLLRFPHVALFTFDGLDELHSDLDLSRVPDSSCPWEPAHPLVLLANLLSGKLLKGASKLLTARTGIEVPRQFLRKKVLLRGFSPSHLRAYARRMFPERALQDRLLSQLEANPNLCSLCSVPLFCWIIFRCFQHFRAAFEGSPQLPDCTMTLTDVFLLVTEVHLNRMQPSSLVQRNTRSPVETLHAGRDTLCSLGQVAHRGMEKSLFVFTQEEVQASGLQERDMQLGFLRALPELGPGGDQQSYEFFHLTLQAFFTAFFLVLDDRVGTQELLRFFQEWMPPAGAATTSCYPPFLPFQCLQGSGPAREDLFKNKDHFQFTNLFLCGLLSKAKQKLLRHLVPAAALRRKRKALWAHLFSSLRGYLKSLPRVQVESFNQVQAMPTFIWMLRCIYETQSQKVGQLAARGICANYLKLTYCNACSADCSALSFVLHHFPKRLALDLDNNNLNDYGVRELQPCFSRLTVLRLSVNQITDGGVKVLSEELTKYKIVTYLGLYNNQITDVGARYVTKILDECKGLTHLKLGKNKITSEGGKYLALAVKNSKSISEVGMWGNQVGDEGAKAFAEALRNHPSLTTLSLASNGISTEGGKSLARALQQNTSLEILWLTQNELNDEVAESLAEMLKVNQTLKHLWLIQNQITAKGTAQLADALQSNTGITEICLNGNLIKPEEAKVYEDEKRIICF
Protocol: as §1, §2

human serum albumin = human serum albumin (Homo sapiens, UniProt P02768); assay: Human serum albumin (HSA) binding; type: in vitro ADME
Excerpt: (§3) Physicochemical analyses of compounds were completed at GSK.

CLND solubility = type: physicochemical; settings: phosphate buffered saline with 5% DMSO, pH 7.4, aqueous buffer, kinetic from dmso stock; 5% DMSO pH7.4 phosphate buffered saline
Excerpt: as §3

endogenous NOD2 = target: T3, endogenous NOD2 (Homo sapiens, UniProt Q9HC29); assay: MDP-stimulated IL-8 release in HCT116 cells; type: cell-based; settings: for IC50: human colon carcinoma cells, IL-8 released into medium
T3 construct: Compound activity on endogenous NOD1 and NOD2 receptors was determined; host or cells: HCT116
Protocol: (§4) For assay, cells were seeded into 96 well plates (90,000 cells/well) in DMEM containing 1% FBS and pre-incubated with compounds for 1 hour before addition of either 25 µg/mL Tri-DAP or 1 µg/mL MDP. The level of IL-8 released into medium after 24-hour incubation was determined by HTRF assay (Cisbio) as described above and fluorescence measured on an Envision model 2102 multilabel plate reader (Perkin Elmer). The activity of compounds against NOD1-induced type I interferon response was determined by inhibition of Tri-DAP stimulated IP-10 secretion in HT-29 cells, maintained in the same medium as for HCT116 cells. The HT-29 cells were seeded into 96 well plates (60,000 cells/well) in DMEM with 1% FBS, pre-incubated with compounds for 1 hour and stimulated for 24 hours with 50 µg/mL Tri-DAP. The concentration of IL-8 released into the medium was measured by HTRF as above, IP-10 was measured using the IP-10/CXCL10 Quantikine ELISA kit (R&D Systems), and IFNβ was measured using the MA6000 human IFN-β tissue culture kit (Meso Scale Discovery).

NOD2 = NOD2 (Homo sapiens, UniProt Q9HC29); assay: MDP-stimulated IL-8 release in 293/hNOD2 cells; type: cell-based; settings: HEK293 stably expressing human NOD2, IL-8 released into medium
endogenous NOD1 = target: T4, endogenous NOD1 (Homo sapiens, UniProt Q9Y239); assay: Tri-DAP-stimulated IL-8 release in HCT116 cells; type: cell-based; settings: for inhibition of Tri-DAP-stimulated IL-8 secretion: HCT116, increasing concentrations (16 nM–16 µM); for IC50: human colon carcinoma cells, IL-8 released into medium
T4 construct: Compound activity on endogenous NOD1 and NOD2 receptors was determined; host or cells: HCT116
T4 sequence (Q9Y239 1-953): T2 sequence (Q9Y239 1-953)
Protocol: as §4

α1-acid glycoprotein = α1-acid glycoprotein (AGP) binding; type: in vitro ADME
Excerpt: as §3

[1] = HEK293 stably expressing human NOD1, IL-8 released into medium, read-out: IC50 293/hNOD1 iE-DAP

T3 sequence (Q9HC29 whole entry): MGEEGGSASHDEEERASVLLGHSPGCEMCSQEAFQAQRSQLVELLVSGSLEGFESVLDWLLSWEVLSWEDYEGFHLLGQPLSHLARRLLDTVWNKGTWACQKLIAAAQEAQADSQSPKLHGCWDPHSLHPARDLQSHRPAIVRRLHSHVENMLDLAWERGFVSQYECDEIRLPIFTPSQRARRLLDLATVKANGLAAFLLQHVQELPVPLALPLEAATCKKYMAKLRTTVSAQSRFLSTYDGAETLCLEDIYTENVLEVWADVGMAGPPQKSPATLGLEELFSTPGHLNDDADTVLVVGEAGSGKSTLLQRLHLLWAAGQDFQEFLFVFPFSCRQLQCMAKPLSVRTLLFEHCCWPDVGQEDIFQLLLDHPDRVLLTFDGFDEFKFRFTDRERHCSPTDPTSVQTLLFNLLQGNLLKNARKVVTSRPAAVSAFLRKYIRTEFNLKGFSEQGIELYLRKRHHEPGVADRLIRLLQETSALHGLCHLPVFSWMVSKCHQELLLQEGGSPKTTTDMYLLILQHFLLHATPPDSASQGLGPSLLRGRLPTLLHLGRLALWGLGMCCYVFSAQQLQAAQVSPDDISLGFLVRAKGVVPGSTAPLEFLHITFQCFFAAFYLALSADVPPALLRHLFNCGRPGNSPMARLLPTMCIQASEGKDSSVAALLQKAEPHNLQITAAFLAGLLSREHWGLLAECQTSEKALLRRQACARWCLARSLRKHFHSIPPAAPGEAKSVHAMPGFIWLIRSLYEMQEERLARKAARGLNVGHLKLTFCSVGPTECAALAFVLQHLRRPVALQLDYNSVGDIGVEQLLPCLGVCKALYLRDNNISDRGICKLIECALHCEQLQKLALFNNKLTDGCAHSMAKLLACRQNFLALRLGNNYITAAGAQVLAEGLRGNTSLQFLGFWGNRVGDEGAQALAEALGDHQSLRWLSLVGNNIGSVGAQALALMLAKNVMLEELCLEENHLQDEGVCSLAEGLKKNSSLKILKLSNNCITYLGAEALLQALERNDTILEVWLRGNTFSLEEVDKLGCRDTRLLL
Chain of NOD2 (Q9HC29 whole entry): as above
Chain of human serum albumin (P02768 25-609): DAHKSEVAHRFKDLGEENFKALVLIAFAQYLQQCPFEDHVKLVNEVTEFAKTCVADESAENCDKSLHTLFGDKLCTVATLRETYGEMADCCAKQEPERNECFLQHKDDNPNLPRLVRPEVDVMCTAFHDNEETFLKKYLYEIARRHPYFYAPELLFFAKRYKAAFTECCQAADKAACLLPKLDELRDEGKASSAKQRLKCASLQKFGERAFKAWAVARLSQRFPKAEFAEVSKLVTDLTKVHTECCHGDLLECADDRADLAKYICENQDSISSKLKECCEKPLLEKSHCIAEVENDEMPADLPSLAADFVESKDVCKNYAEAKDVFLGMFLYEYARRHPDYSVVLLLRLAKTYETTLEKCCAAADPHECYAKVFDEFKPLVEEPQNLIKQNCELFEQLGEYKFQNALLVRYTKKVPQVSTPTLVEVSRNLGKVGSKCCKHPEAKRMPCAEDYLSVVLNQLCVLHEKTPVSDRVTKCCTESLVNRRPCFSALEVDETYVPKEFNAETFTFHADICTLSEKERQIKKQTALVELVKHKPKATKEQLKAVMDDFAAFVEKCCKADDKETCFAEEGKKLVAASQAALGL

| IC50 (TNFR1) | IC50 (NOD1; [1]) | HSA binding (human serum albumin) | solubility (CLND solubility) | IC50 (endogenous NOD2) | IC50 (NOD2) | inhibition of Tri-DAP-stimulated IL-8 secretion (endogenous NOD1) | IC50 (endogenous NOD1) | AGP binding (α1-acid glycoprotein) | greatest inhibition of MDP-stimulated IL-8 release (endogenous NOD2; HCT116, at high concentrations) | IC50 (NOD1; iE-DAP-stimulated IL-8 production in 293/hNOD1 cells, SAR figures, read-out: NOD1 XC50) | SMILES |
| --- | --- | --- | --- | --- | --- | --- | --- | --- | --- | --- | --- |
| > 50000 nM | 600 nM | 95.94% | 2 µM (≈ 0.785 µg/mL) | > 50000 nM | > 50000 nM | complete inhibition | 900 nM | – | – | – | Cn1c(=O)[nH]c(=O)c2c1nc(CCSc1ccccc1)n2Cc1ccccc1 [SB711] |
| > 50000 nM | 3500 nM | 97.14% | 41 µM (≈ 18.1 µg/mL) | – | – | complete inhibition | 700 nM | 83.38% | – | – | Cc1nc2ccc(NC(=O)c3cccc(NS(=O)(=O)c4ccc(F)cc4)c3)cc2s1 [GSK966] |

Continued, compound first:

| SMILES | IC50 (TNFR1) | IC50 (NOD1; [1]) | HSA binding (human serum albumin) | solubility (CLND solubility) | IC50 (endogenous NOD2) | IC50 (NOD2) | inhibition of Tri-DAP-stimulated IL-8 secretion (endogenous NOD1) | IC50 (endogenous NOD1) | AGP binding (α1-acid glycoprotein) | greatest inhibition of MDP-stimulated IL-8 release (endogenous NOD2; HCT116, at high concentrations) | IC50 (NOD1; iE-DAP-stimulated IL-8 production in 293/hNOD1 cells, SAR figures, read-out: NOD1 XC50) |
| --- | --- | --- | --- | --- | --- | --- | --- | --- | --- | --- | --- |
| CCc1ccc(S(=O)(=O)Nc2cc(-n3c(C)nc4ccccc4c3=O)ccc2F)s1 [GSK223] | > 50000 nM | 1000 nM | 97.38% | 327 µM (≈ 145 µg/mL) | > 50000 nM | > 50000 nM | complete inhibition | 400 nM | 80.81% | 30% | – |
| Cc1nc2ccccc2c(=O)n1-c1ccc(Cl)c(NS(=O)(=O)c2ccccc2F)c1 [Compound 22] | > 50000 nM | 60 nM | – | – | > 15000 nM | > 50000 nM | – | 30 nM | – | – | – |
| Cc1ccc(S(=O)(=O)Nc2cccc(C(=O)Nc3ccc4nc(C)sc4c3)c2)cc1 [Compound 16] | > 30000 nM | 400 nM | 97.2% | 14 µM (≈ 6.13 µg/mL) | – | > 30000 nM | – | 60 nM | 85.71% | – | 430 ± 100 nM |
